From ChEMBL document CHEMBL5209583, “pH biosensor based assay for SLC9B2 using HEK-293 SLC9B2 OE cells” (2022) come the findings set out here.

The target of the assay is T1, Sodium/hydrogen exchanger 9B2 (Homo sapiens, UniProt Q86UD5).
T1 sequence (Q86UD5 whole entry): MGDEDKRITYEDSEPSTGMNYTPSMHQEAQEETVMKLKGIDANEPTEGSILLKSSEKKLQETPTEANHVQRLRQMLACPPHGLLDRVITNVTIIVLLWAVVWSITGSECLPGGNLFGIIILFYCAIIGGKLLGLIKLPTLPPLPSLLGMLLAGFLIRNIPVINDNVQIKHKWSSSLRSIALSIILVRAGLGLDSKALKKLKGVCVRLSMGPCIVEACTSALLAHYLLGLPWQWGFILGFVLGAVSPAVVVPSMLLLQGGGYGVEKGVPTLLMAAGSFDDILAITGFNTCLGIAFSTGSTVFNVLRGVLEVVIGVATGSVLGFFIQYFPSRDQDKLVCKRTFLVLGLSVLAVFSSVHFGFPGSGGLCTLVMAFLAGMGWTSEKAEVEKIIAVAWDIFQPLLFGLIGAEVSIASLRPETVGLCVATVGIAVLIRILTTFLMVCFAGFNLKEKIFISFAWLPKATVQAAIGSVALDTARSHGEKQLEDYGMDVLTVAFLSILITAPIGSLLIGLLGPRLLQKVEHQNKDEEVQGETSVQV
Kind of assay: Inhibition of the Sodium/Hydrogen Exchanger-Like Domain-Containing Protein 2 (NHA2, SLC9B2) as assessed by a sensor pH-sensitive genetically encoded fluorescent sensor (pHAxensor) in HEK-293 cells stably transfected with SLC9B2 (PubChem AID: 1794821). Type of assay: functional, cell-based, HEK293.

pIC50: −log10 of the molar value.

The pIC50 is −log10 of the IC50, conventionally taken in molar units. A low value points to a large IC50. Consider `O=C(CCc1ccc(O)cc1)c1c(O)cc(O)cc1O` [PHLORETIN], for which the pIC50 is 4.05.
